Data as given in article PMC12564596 (2025).

Experiments:
[1] = tested on: HS-Apt-PEN (DNA, aptamer) CTGAATTGGATCTCTCTTCTTGAGCGATCTCCACA; experiment: LSPR on AuNPs, Langmuir fit; settings: 137 mM NaCl, 2.7 mM KCl; PBS pH 7.4; flow; MCH and salmon sperm DNA passivation; immobilised aptamer
[2] = tested on: HS-Apt-PEN (DNA, aptamer) CTGAATTGGATCTCTCTTCTTGAGCGATCTCCACA; experiment: QCM-D on gold electrode, Langmuir fit of 3rd harmonic frequency; settings: 137 mM NaCl, 2.7 mM KCl; PBS pH 7.4; flow; immobilised aptamer; no clear plateau to 500 nM; some non-specific binding likely
[3] = tested on: HS-Apt-OTC (DNA, aptamer) GGGGGCACACATGTAGGTGCTGTCCAGGTGTGGTTGTGGT; experiment: LSPR and QCM-D selectivity test; settings: 137 mM NaCl, 2.7 mM KCl; PBS pH 7.4; 100 nM compound

KD [1] [nM] | KD [2] [nM] | binding [3] | Compound
20 | 50 |  | CC1(C)S[C@@H]2[C@H](NC(=O)Cc3ccccc3)C(=O)N2[C@H]1C(=O)O
 |  | yes | CN(C)[C@@H]1C(=O)C(C(N)=O)=C(O)[C@@]2(O)C(=O)C3=C(O)c4c(O)cccc4[C@@](C)(O)[C@H]3[C@H](O)[C@@H]12
